One assay deals with C. albicans ATCC 64124. The assay can be described thus: microbe, parasite or virus in culture. The settings on record: C. albicans ATCC 64124; for Activity in gels with 1.0% denture adhesive compared with gels without: result in words, Tukey HSD, 0.05 level. As to the method: (§1) C. albicans strains ATCC 64124 and HMV4C were used and cultivated as previously described. Their identities were verified (State Hygienic Laboratory, University of Iowa Research Park, Coralville, IA, USA). These cultures were adjusted to contain 1.2–3.7 × 10^6 CFU/mL in Roswell Park Memorial Institute (RPMI) 1640 medium.
(§2) The denture adhesive used was a standard, over-the-counter gel containing poly sodium-calcium mixed partial salt, petrolatum, cellulose gum, and mineral oil and was prepared as previously described. Denture adhesive was too viscous to use directly and was diluted to 1.0% for incorporation into the radial diffusion assay.
(§3) Each agent was reconstituted in distilled water with 0.01% acetic acid for resuspension to keep the agent in solution. Two-fold dilutions were prepared.
(§4) The radial diffusion assays were performed as described with the following unique modifications. Underlay agarose gels were prepared with and without 1.0% denture adhesive in square petri dishes (Electron Microscopy Sciences, Hatfield, PA, USA). Plates without 1.0% adhesive contained 12.5 mL of 10.0 mM sodium phosphate buffer adjusted to pH 7.4, 12.5 mL of 2.0% agarose (Agarose LE, Roche Diagnostics Corporation, Indianapolis, IN, USA) in 10.0 mM sodium phosphate adjusted to pH 7.4, and 1.0 mL of C. albicans culture per plate. Plates with 1.0% adhesive contained 12.5 mL of 2.0% dental adhesive in 10.0 mM sodium phosphate adjusted to pH 7.4, 12.5 mL 2.0% agarose (Agarose LE, Roche Diagnostics Corporation, Indianapolis, IN, USA) in 10.0 mM sodium phosphate adjusted to pH 7.4, and 1.0 mL of C. albicans culture. Wells of 2.0 mm in diameter were created and filled with 5.0 µL of AMP or antifungal antibiotic dilution (n = three replications per test). A blank of 0.01% acetic acid in distilled water was also included. The plates were incubated at 37 °C for 3 h. After incubation, 10.0 mL of overlay containing 1.0% agarose in 10.0 mM phosphate buffer with 6.0% RPMI 1640, was added to each plate. The plates were incubated at 37 °C overnight. At 24 h, antimicrobial activity was determined by measuring the zone of clearance around the center of each well and extrapolating MIC as described.
(§5) When MICs fell outside the range of the assay, we considered the MIC to be equal to the highest concentration used in the assay. […] One-way fixed-effects ANOVA models were fit to the µM MIC values. Pairwise group comparisons were conducted using the method of Tukey’s Honest Significant Differences (HSD). A 0.05 level was used to determine statistically significant differences. All analyses were conducted using JMP (Version 10.0, SAS, Cary, NC, USA).

The test system of a further assay is C. albicans HMV4C. The assay can be described thus: microbe, parasite or virus in culture. The settings on record: C. albicans HMV4C; for Activity in gels with 1.0% denture adhesive compared with gels without: result in words, Tukey HSD, 0.05 level. As to the method:
as §1, §2, §3, §4, §5

Another assay relates to Candida albicans. Conditions: broth microdilution, p < 0.05; cited from earlier work. The text has this: Candida species infections can cause complications for individuals with dentures, such as denture stomatitis.
Where [1] appears, read: in both gels with or without 1.0% denture adhesive.
[2] abbreviates: No Adhesive, radial diffusion, mean (standard error, n = 3).
Setting [3] is: Adhesive (1.0% denture adhesive in gel), radial diffusion, mean (standard error, n = 3).
[4] abbreviates: Adhesive (1.0% denture adhesive in gel), radial diffusion, pH 7.4, 37 °C, read at 24 h, mean (standard error, n = 3).

Bridge positions count the residues as written; N and C are the ends. Ends that are not written are not given here. Peptide text beside a SMILES is read from it. Where only a bound is given, the exact number is not on record here.

With `CC[C@H](C)[C@@H]1NC(=O)[C@H](CCCCN)NC(=O)[C@H]([C@@H](C)O)NC(=O)[C@H](Cc2ccccc2)NC(=O)[C@H]([C@@H](C)CC)NC(=O)[C@@H]2CCCN2C(=O)[C@@H]2CSSC[C@@H](C(=O)N[C@@H](CCCCN)C(=O)O)NC(=O)[C@@H]3CSSC[C@H](NC(=O)[C@H](CC(N)=O)NC(=O)[C@H](Cc4ccc(O)cc4)NC(=O)[C@H](Cc4c[nH]cn4)NC(=O)[C@@H](N)CC(=O)O)C(=O)N[C@@H](C(C)C)C(=O)N[C@@H](CO)C(=O)N[C@@H](CO)C(=O)NCC(=O)NCC(=O)N[C@@H](CCC(N)=O)C(=O)N[C@@H](CSSC[C@H](NC(=O)[C@H]([C@@H](C)O)NC(=O)CNC(=O)[C@H](CCC(N)=O)NC1=O)C(=O)N[C@@H](Cc1ccc(O)cc1)C(=O)N[C@@H](CCCNC(=N)N)C(=O)NCC(=O)N[C@@H](CCCCN)C(=O)N[C@@H](C)C(=O)N[C@@H](CCCCN)C(=O)N3)C(=O)N[C@@H](CC(C)C)C(=O)N[C@@H](Cc1ccc(O)cc1)C(=O)N[C@@H](CO)C(=O)N[C@@H](C)C(=O)N2` [HBD-1] (H-DHYNCVSSGGQCLYSACPIFTKIQGTCYRGKAKCCK-OH; disulfide 5-34, 12-27, 17-35 (inferred); N-terminus and C-terminus assumed), the “Minimal inhibitory concentration (MIC)” value is on record as greater than 254.1 µM in the assay on C. albicans ATCC 64124 (setting [1]), >254.1 (0.0) µM with C. albicans HMV4C (setting [2]) and greater than 254.1 µM in the assay with C. albicans HMV4C (setting [1]).

Regarding `C[C@H](NC(=O)[C@H](Cc1c[nH]cn1)NC(=O)[C@H](CO)NC(=O)[C@@H](N)CC(=O)O)C(=O)N[C@@H](CCCCN)C(=O)N[C@@H](CCCNC(=N)N)C(=O)N[C@@H](Cc1c[nH]cn1)C(=O)N[C@@H](Cc1c[nH]cn1)C(=O)NCC(=O)N[C@@H](Cc1ccc(O)cc1)C(=O)N[C@@H](CCCCN)C(=O)N[C@@H](CCCNC(=N)N)C(=O)N[C@@H](CCCCN)C(=O)N[C@@H](Cc1ccccc1)C(=O)N[C@@H](Cc1c[nH]cn1)C(=O)N[C@@H](CCC(=O)O)C(=O)N[C@@H](CCCCN)C(=O)N[C@@H](Cc1c[nH]cn1)C(=O)N[C@@H](Cc1c[nH]cn1)C(=O)N[C@@H](CO)C(=O)N[C@@H](Cc1c[nH]cn1)C(=O)N[C@@H](CCCNC(=N)N)C(=O)NCC(=O)N[C@@H](Cc1ccc(O)cc1)C(=O)O` [Histatin 5], the “Minimal inhibitory concentration (MIC)” value in the assay on C. albicans ATCC 64124 (setting [1]) was greater than 329.0 µM. In addition, in the assay with C. albicans HMV4C (radial diffusion), the “Activity in gels with 1.0% denture adhesive compared with gels without” value is “diminished activity”.

Take `CC[C@H](C)[C@H](NC(=O)[C@H](CCCCN)NC(=O)[C@H](CCC(=O)O)NC(=O)[C@H](CCCCN)NC(=O)[C@H](CO)NC(=O)[C@H](CCCCN)NC(=O)[C@H](CCCNC(=N)N)NC(=O)[C@H](Cc1ccccc1)NC(=O)[C@H](Cc1ccccc1)NC(=O)[C@H](CC(=O)O)NC(=O)CNC(=O)[C@H](CC(C)C)NC(=O)[C@@H](N)CC(C)C)C(=O)NCC(=O)N[C@@H](CCCCN)C(=O)N[C@@H](CCC(=O)O)C(=O)N[C@@H](Cc1ccccc1)C(=O)N[C@@H](CCCCN)C(=O)N[C@@H](CCCNC(=N)N)C(=O)N[C@H](C(=O)N[C@H](C(=O)N[C@@H](CCC(N)=O)C(=O)N[C@@H](CCCNC(=N)N)C(=O)N[C@H](C(=O)N[C@@H](CCCCN)C(=O)N[C@@H](CC(=O)O)C(=O)N[C@@H](Cc1ccccc1)C(=O)N[C@@H](CC(C)C)C(=O)N[C@@H](CCCNC(=N)N)C(=O)N[C@@H](CC(N)=O)C(=O)N[C@@H](CC(C)C)C(=O)N[C@H](C(=O)N1CCC[C@H]1C(=O)N[C@@H](CCCNC(=N)N)C(=O)N[C@H](C(=O)N[C@@H](CCC(=O)O)C(=O)N[C@@H](CO)C(=O)O)[C@@H](C)O)C(C)C)[C@@H](C)CC)C(C)C)[C@@H](C)CC` [LL37]: the “Minimal inhibitory concentration (MIC)” value with C. albicans ATCC 64124 (setting [3]) is given as >222.4 (0.0) µM; in the assay with C. albicans ATCC 64124 (setting [2]), >222.4 (0.0) µM; in the assay on C. albicans ATCC 64124 (setting [1]), greater than 222.4 µM; with C. albicans HMV4C (setting [3]), >222.4 (0.0) µM; in the assay on C. albicans HMV4C (setting [2]), 30.4 (1.0) µM. In the assay with C. albicans HMV4C (radial diffusion), the “Activity in gels with 1.0% denture adhesive compared with gels without” value is “diminished activity”.

For `CCCCCCCCCCCCCCC[C@@H](O)[C@@H](N)CO` [dihydrosphingosine], in the assay with Candida albicans, the “Loss of antimicrobial activity in 1.0% denture adhesive” value (from here on “Loss … in 1.0% denture adhesive”) is on record as “lost antimicrobial activity”.

With `CCCCCCCCCCCCCC[C@@H](O)[C@@H](O)[C@@H](N)CO` [phytosphingosine], the “Loss … in 1.0% denture adhesive” value in the assay with Candida albicans is recorded as “lost antimicrobial activity”.

In the case of `CCCCCCCCCCCCC/C=C/[C@@H](O)[C@@H](N)CO` [sphingosine], in the assay on Candida albicans, the “Loss … in 1.0% denture adhesive” value was “lost antimicrobial activity”.

“GIGDPVTCLKSGAICHPVFCPRRYKQIGTCGLPGTKCCKKP (disulfide 8-37, 15-30, 20-38 (inferred)) [HBD-2]”: the “Activity in gels with 1.0% denture adhesive compared with gels without” value with C. albicans ATCC 64124 (radial diffusion) and in the assay on C. albicans HMV4C (radial diffusion) was “diminished activity” each time.

For “GIINTLQKYYCRVRGGRCAVLSCLPKEEQIGKCSTRGRKCCRRKK (disulfide 11-40, 18-33, 23-41 (inferred)) [HBD-3]”, the “Activity in gels with 1.0% denture adhesive compared with gels without” value in the assay with C. albicans ATCC 64124 (radial diffusion) and with C. albicans HMV4C (radial diffusion) was “diminished activity” each time.

“IP-10: recombinant human CXCL10 (Peprotech)”: the “Minimal inhibitory concentration (MIC)” value is >1000.0 (0.0) µg/mL in the assay with C. albicans ATCC 64124 (setting [4]); >115.7 (0.0) µM in the assay with C. albicans ATCC 64124 (setting [3]); 103.6 (3.2) µg/mL in the assay with C. albicans ATCC 64124 (No Adhesive, radial diffusion, pH 7.4, 37 °C, read at 24 h, mean (standard error, n = 3)); 12.0 (0.4) µM with C. albicans ATCC 64124 (setting [2]); >200.0 (0.0) µg/mL in the assay on C. albicans HMV4C (setting [4]); >23.1 (0.0) µM with C. albicans HMV4C (setting [3]). For the same compound, the “Minimal inhibitory concentration (MIC)” value is listed as 18.6 (0.3) µg/mL with C. albicans HMV4C (No Adhesive, radial diffusion, agarose in 10.0 mM sodium phosphate pH 7.4, 37 °C, read at 24 h, mean (standard error, n = 3)) and 2.2 (0.0) µM in the assay on C. albicans HMV4C (setting [2]). In addition, the “Activity in gels with 1.0% denture adhesive compared with gels without” value in the assay with C. albicans ATCC 64124 (radial diffusion) and with C. albicans HMV4C (radial diffusion) was “diminished activity” throughout.

The record behind these values is PMC5372986, “Diminished Antimicrobial Peptide and Antifungal Antibiotic Activities against Candida albicans in Denture Adhesive” (Antibiotics, 2017).
